# Experimental data from US20240082228A1, “SARS-COV-2 THERAPEUTICS” (priority 2021, published 2024).
# Where “and” joins values, the source holds several entries; their conditions need not be identical. Equal values may be shown once. Read-outs that look alike come from different tables or passages of the source.
# What was measured:
# [1] = system: SARS-CoV-2; experiment: microbe, parasite or virus in culture; format: cell-based; conditions: for % Infection (1 uM) / % Infection (5 uM): single replicate of triplicate; for Normalized Infection (1 uM) / log2FC Infection (1 uM) / Normalized Infection (5 uM) / log2FC Infection (5 uM) / activity at 1 µM / activity at 5 µM: single replicate, relative to negative control DMSO; for activity at 1 µM: Severe acute respiratory syndrome coronavirus 2, 1 uM, read-out: Normalized Infection (1 uM); for activity at 5 µM: Severe acute respiratory syndrome coronavirus 2, 5 uM, read-out: Normalized Infection (5 uM)
# [2] = for Average Cell Number (1 uM) / Cell Number (1 uM) / Normalized Cell Number (1 uM): compound at 1 uM; for Average Cell Number (1 uM) / Average Cell Number (5 uM): average of normalized cell number, n=3, relative to DMSO; for Cell Number (1 uM) / Normalized Cell Number (1 uM) / Cell Number (5 uM) / Normalized Cell Number (5 uM): single replicate; for Cell Number (1 uM) / Cell Number (5 uM): raw cell count; for Normalized Cell Number (1 uM) / Normalized Cell Number (5 uM): relative to negative control DMSO; for Average Cell Number (5 uM) / Cell Number (5 uM) / Normalized Cell Number (5 uM): compound at 5 uM
# [3] = 1 uM, average log2FC infection (n=3) relative to DMSO
# [4] = 5 uM, average log2FC infection (n=3) relative to DMSO
smiles,measurement,setting,value
"O=C(c1ccc(F)cc1)N1CCC[C@H](c2nc(-c3ccc(F)cc3)no2)C1 [ADX-47273, adx-47273]",Average Infection (1 uM),[1],−0.4315
same,Average Infection (5 uM),[1],−0.3579
same,"HIT (2 Std, 1 uM)",[1]; 1 uM,HIT
same,% Infection (1 uM),[1]; 1 uM,21.77% and 18.58% and 18.27%
same,Normalized Infection (1 uM),[1]; 1 uM,0.8288 and 0.7074 and 0.6954
same,log2FC Infection (1 uM),[1]; 1 uM,−0.271 and −0.4995 and −0.524
same,% Infection (5 uM),[1]; 5 uM,14.06% and 10.49% and 11.77%
same,Normalized Infection (5 uM),[1]; 5 uM,0.9128 and 0.681 and 0.7644
same,log2FC Infection (5 uM),[1]; 5 uM,−0.1316 and −0.5544 and −0.3876
same,HIT,"[1]; overall, 1 or 5 uM",Yes
"CC1(C)S[C@@H]2[C@H](NC(=O)[C@H](N)c3ccccc3)C(=O)N2[C@H]1C(=O)O [Ampicillin, ampicillin]",Toxic (1 uM),[2],0 (non-toxic (Normalized Cell number>0.65)
same,Toxic (5 uM),[2],0 (non-toxic (Normalized Cell number>0.65)
same,Average Cell Number (1 uM),[2],0.694
same,Cell Number (1 uM),[2],3959 and 4296 and 3945
same,Normalized Cell Number (1 uM),[2],0.6756 and 0.7331 and 0.6732
same,Average Cell Number (5 uM),[2],0.9658
same,Cell Number (5 uM),[2],5481 and 5912 and 5777
same,Normalized Cell Number (5 uM),[2],0.9249 and 0.9976 and 0.9748
same,"HIT (2 Std, 1 uM)",[1]; 1 uM,HIT
same,Average Infection (1 uM),[1]; [3],−0.9564
same,Average Infection (5 uM),[1]; [4],−0.0334
same,activity at 1 µM,[1],48.2%
same,activity at 5 µM,[1],102%
same,HIT,"[1]; overall, 1 or 5 uM",Yes
"Nc1cc(C(F)(F)F)c(-c2nc(N3CCOCC3)nc(N3CCOCC3)n2)cn1 [Bimiralisib, bimiralisib]",Toxic (1 uM),[2],0 (non-toxic (Normalized Cell number>0.65)
same,Average Cell Number (1 uM),[2],0.6927
same,Cell Number (1 uM),[2],3839 and 4405 and 3934
same,Normalized Cell Number (1 uM),[2],0.6551 and 0.7517 and 0.6713
same,Average Cell Number (5 uM),[2],0.4637
same,Cell Number (5 uM),[2],2795 and 2791 and 2658
same,Normalized Cell Number (5 uM),[2],0.4716 and 0.471 and 0.4485
same,"HIT (2 Std, 1 uM)",[1]; 1 uM,HIT
same,Average Infection (1 uM),[1]; [3],−1.45
same,"HIT (2 Stdv, 5 uM)",[1]; 5 uM,HIT
same,Average Infection (5 uM),[1]; [4],−4.123
same,activity at 5 µM,[1],5.11%
same,HIT,"[1]; overall, 1 or 5 uM",Yes
"c1cc(OCCN2CCCCC2)cc(-c2n[nH]c3ccc(-c4nc[nH]n4)cc23)c1 [CC-401, cc-401]",Toxic (1 uM),[2],0 (non-toxic (Normalized Cell number>0.65)
same,Toxic (5 uM),[2],0 (non-toxic (Normalized Cell number>0.65)
same,Average Cell Number (1 uM),[2],0.8485
same,Cell Number (1 uM),[2],4691 and 5161 and 5065
same,Normalized Cell Number (1 uM),[2],0.8005 and 0.8807 and 0.8643
same,Average Cell Number (5 uM),[2],0.8935
same,Cell Number (5 uM),[2],4993 and 5513 and 5380
same,Normalized Cell Number (5 uM),[2],0.8425 and 0.9303 and 0.9078
same,Average Infection (1 uM),[1]; [3],−0.3224
same,"HIT (2 Stdv, 5 uM)",[1]; 5 uM,HIT
same,Average Infection (5 uM),[1]; [4],−0.828
same,activity at 1 µM,[1],86.2%
same,activity at 5 µM,[1],58.4%
same,HIT,"[1]; overall, 1 or 5 uM",Yes
"CS(=O)(=O)N1CCc2c(-c3cnc(N)nc3)nc(N3CCOCC3)nc21 [CH5132799, ch5132799]",Toxic (1 uM),[2],0 (non-toxic (Normalized Cell number>0.65)
same,Average Cell Number (1 uM),[2],0.6597
same,Cell Number (1 uM),[2],4526 and 3593 and 3479
same,Normalized Cell Number (1 uM),[2],0.7724 and 0.6131 and 0.5937
same,Average Cell Number (5 uM),[2],0.5239
same,Cell Number (5 uM),[2],3141 and 3289 and 2884
same,Normalized Cell Number (5 uM),[2],0.53 and 0.555 and 0.4867
same,"HIT (2 Std, 1 uM)",[1]; 1 uM,HIT
same,Average Infection (1 uM),[1]; [3],−1.059
same,"HIT (2 Stdv, 5 uM)",[1]; 5 uM,HIT
same,Average Infection (5 uM),[1]; [4],−3.565
same,activity at 1 µM,[1],42.1%
same,activity at 5 µM,[1],8.27%
same,HIT,"[1]; overall, 1 or 5 uM",Yes
"CC(C)(C[C@H]1CN(S(=O)(=O)c2cccc(C(F)(F)F)c2)c2cc(-c3cc(F)cc(OC(F)F)c3)ccc2O1)C(=O)O [Cintirorgon, cintirorgon]",Toxic (1 uM),[2],0 (non-toxic (Normalized Cell number>0.65)
same,Toxic (5 uM),[2],0 (non-toxic (Normalized Cell number>0.65)
same,Average Cell Number (1 uM),[2],0.7476
same,Cell Number (1 uM),[2],4247 and 4539 and 4357
same,Normalized Cell Number (1 uM),[2],0.7247 and 0.7746 and 0.7435
same,Average Cell Number (5 uM),[2],0.9874
same,Cell Number (5 uM),[2],5894 and 6058 and 5603
same,Normalized Cell Number (5 uM),[2],0.9946 and 1.022 and 0.9455
same,"HIT (2 Std, 1 uM)",[1]; 1 uM,HIT
same,Average Infection (1 uM),[1]; [3],−0.8423
same,Average Infection (5 uM),[1]; [4],−0.109
same,activity at 1 µM,[1],53.8%
same,HIT,"[1]; overall, 1 or 5 uM",Yes
"C[N+]12CCC(CC1)C(OC(=O)C(O)(c1ccccc1)c1ccccc1)C2 (stereo not drawn) [Clidinium, clidinium]",Toxic (1 uM),[2],0 (non-toxic (Normalized Cell number>0.65)
same,Toxic (5 uM),[2],0 (non-toxic (Normalized Cell number>0.65)
same,Average Cell Number (1 uM),[2],0.6841
same,Cell Number (1 uM),[2],3871 and 4256 and 3900
same,Normalized Cell Number (1 uM),[2],0.6606 and 0.7263 and 0.6655
same,Average Cell Number (5 uM),[2],0.9985
same,Cell Number (5 uM),[2],5211 and 6271 and 6270
same,Normalized Cell Number (5 uM),[2],0.8793 and 1.058 (2×)
same,Average Infection (1 uM),[1],−0.7651
same,Average Infection (5 uM),[1],−0.1069
same,"HIT (2 Std, 1 uM)",[1]; 1 uM,HIT
same,HIT,"[1]; overall, 1 or 5 uM",Yes
"CC(C)C[C@@H](NC(=O)[C@H](Cc1ccccc1)NC(=O)CNC(=O)[C@@H](C)NC(=O)[C@@H](N)Cc1ccc(O)cc1)C(=O)O [DADLE, L-Tyrosyl-D-alanylglycyl-L-phenylalanyl-D-leucine]",Toxic (1 uM),[2],0 (non-toxic (Normalized Cell number>0.65)
same,Toxic (5 uM),[2],0 (non-toxic (Normalized Cell number>0.65)
same,Average Cell Number (1 uM),[2],0.7534
same,Cell Number (1 uM),[2],4511 and 4466 and 4268
same,Normalized Cell Number (1 uM),[2],0.7698 and 0.7621 and 0.7283
same,Average Cell Number (5 uM),[2],0.9869
same,Cell Number (5 uM),[2],5991 and 5664 and 5891
same,Normalized Cell Number (5 uM),[2],1.011 and 0.9558 and 0.9941
same,Average Infection (1 uM),[1],−0.6223
same,Average Infection (5 uM),[1],−0.2501
same,"HIT (2 Std, 1 uM)",[1]; 1 uM,HIT
same,% Infection (1 uM),[1]; 1 uM,17.22% and 16.52% and 17.46%
same,Normalized Infection (1 uM),[1]; 1 uM,0.6557 and 0.6291 and 0.6645
same,log2FC Infection (1 uM),[1]; 1 uM,−0.6088 and −0.6686 and −0.5896
same,% Infection (5 uM),[1]; 5 uM,13.22% and 10.81% and 15.19%
same,Normalized Infection (5 uM),[1]; 5 uM,0.8586 and 0.7017 and 0.9867
same,log2FC Infection (5 uM),[1]; 5 uM,−0.22 and −0.511 and −0.01933
same,HIT,"[1]; overall, 1 or 5 uM",Yes
"O=C(O)CNC(=O)C1C(=O)N(C2CCCCC2)C(=O)N(C2CCCCC2)C1=O [Daprodustat, daprodustat]",Toxic (1 uM),[2],0 (non-toxic (Normalized Cell number>0.65)
same,Toxic (5 uM),[2],0 (non-toxic (Normalized Cell number>0.65)
same,Average Cell Number (1 uM),[2],0.7431
same,Cell Number (1 uM),[2],4292 and 4412 and 4360
same,Normalized Cell Number (1 uM),[2],0.7324 and 0.7529 and 0.744
same,Average Cell Number (5 uM),[2],0.9695
same,Cell Number (5 uM),[2],5964 and 5671 and 5601
same,Normalized Cell Number (5 uM),[2],1.006 and 0.9569 and 0.9451
same,Average Infection (1 uM),[1],−0.8526
same,Average Infection (5 uM),[1],−0.09093
same,"HIT (2 Std, 1 uM)",[1]; 1 uM,HIT
same,activity at 1 µM,[1],57.7%
same,HIT,"[1]; overall, 1 or 5 uM",Yes
"CCOC(=O)N1CCC(=C2c3ccc(Cl)cc3CCc3cccnc32)CC1 [Loratadine, loratadine]",HIT,[1],Yes
same,"HIT (2 Stdv, 5 uM)",[1],HIT
same,Average Infection (1 uM),[1]; [3],−0.3263
same,Average Infection (5 uM),[1]; [4],−1.089
same,activity at 1 µM,[1],81.8%
same,activity at 5 µM,[1],54%
"Cc1ccccc1-n1c(Cn2nc(-c3cccc(O)c3)c3c(N)ncnc32)nc2cccc(C)c2c1=O [PIK-294, pik-294]",Toxic (1 uM),[2],0 (non-toxic (Normalized Cell number>0.65)
same,Toxic (5 uM),[2],0 (non-toxic (Normalized Cell number>0.65)
same,Average Cell Number (1 uM),[2],0.7115
same,Cell Number (1 uM),[2],4346 and 3954 and 4208
same,Normalized Cell Number (1 uM),[2],0.7416 and 0.6747 and 0.7181
same,Average Cell Number (5 uM),[2],0.9038
same,Cell Number (5 uM),[2],5244 and 5589 and 5236
same,Normalized Cell Number (5 uM),[2],0.8849 and 0.9431 and 0.8835
